# Results from patent publication US11337950B2, “Biologically active cannabidiol analogs” (University of Mississippi, priority 2016, dated 2022).
# Where “and” joins values, the source holds several entries; their conditions need not be identical. Identical values can stand only once.
# What was measured:
# [1] = Solubility of CBD and its analogs in Tocrisolve emulsion; type: physicochemical
# Description: Formulations: 0.5% w/v CBD equivalent in Tocrisolve emulsion.
# Tocrisolve composition: […] emulsion composed of a 1:4 ratio of soya oil/water that is emulsified with the block co-polymer Pluronic F68. Manufacturing process for the Tocrisolve emulsion: • Add accurately weighed amount of drug a glass vial. • Add required volume of Torcisolve blank emulsion to each vial • Vortex each vial for 5 minutes. • Sonicate each vial for 10 minutes. • Centrifuge each vial for 5 minutes at 9000 rpm at 25° C. • Collect the supernatant and analyze for CBD, CBD-Val Mono and CBD-Val-HS mono as applicable.
# [2] = Oral bioavailability of CBD-Mono-VHS in sesame seed oil (Example 18); type: in vivo; details: rats; for Plasma Concentration of CBD-Mono-VHS, Average / Plasma Concentration of CBD-Mono-VHS: oral 4 mg/animal in sesame seed oil; for Plasma Concentration of CBD-Mono-VHS: individual animals
# Description: CBD-Mono-VHS was formulated in a sesame seed oil (Welch, Holme and Clark Co. lot #39375) formulation composed of 40 mg/mL solution of the drug substance/mi. Animals (cannulated rats, n=4) were dosed 100 μl of the oil solution by oral gavage. Blood samples were collected at 0, 0.25, 0.5, 1, 2, 4, 6, 8, and 24 hr. after dosing. The blood samples were centrifuged and the plasma was analyzed for CBD-Mono-VHS. Table 7 and FIG. 5 show the results, with very high blood levels which remain significant (>10 ng/mL) at 24 hr. after dosing.
# [3] = Bioavailability of CBD-Mono-VHS from a lipophilic suppository (Example 16); type: in vivo; design: unit not given here; details: rats, rectal 7.5 mg, Lipophilic (Wecobee M) Suppository; for Plasma Concentration of CBD-Mono-VHS: individual animals
# Description: CBD-Mono-Val-Mono-HS was formulated in Wecobee M suppository base (a triglyceride lipophilic base) at 75 mg/mL of melted base. The study was carried out in a cannulated rat model. Three animals were administered 100 μl. each of the semisolid formulation for a rectal dose of 7.5 mg CBD-Mono-VHS. This is followed by collection of blood samples (250 μl.) at each data point (0, 0.25, 0.5, 1, 2, 4, 6, and 24 hr.). The blood was centrifuged and the plasma was used for LC-MS/MS analysis.
# [4] = Organ distribution of CBD-Mono-VHS after oral administration (Example 19); type: in vivo, rats; details: rat, oral 4 mg/animal
# [5] = system: cisplatin-induced tactile allodynia; experiment: Cisplatin-induced tactile allodynia model, electronic von Frey (Examples 23, 24); type: in vivo, C57BL/6 mice; details: Example 24, mice; for Doses with mean withdrawal thresholds significantly higher compared to vehicle: ps≤0.0001
# [6] = Plasma and organ concentrations of CBD and CBD-Mono-VHS after IP administration (Example 22); type: in vivo; details: mice
# Description: CBD-Mono-VHS was administered intraperitoneally to mice at 2 doses (30 μg and 60 μg equivalent of CBD/mouse). Seventy minutes after dosing the animals (3 mice in each dose group), all animals were sacrificed. Blood, as well as organs (liver, spleen, kidney, and brain), were harvested for LC-MS/MS analysis of their content of both CBD and CBD-Mono-VHS.
# Also shown is the concentration of CBD-Mono-VHS in the plasma 70 minutes after dosing.
# [7] = IP CBD-Mono-VHS, High Dose (60 μg CBD/mouse), 70 Minutes, AVG.
compound,measurement,setting,value
"C=C(C)C1CCC(C)=CC1c1c(O)cc(CCCCC)cc1OC(=O)[C@@H](NC(=O)CCC(=O)O)C(C)C (some centres unmarked) [CBD-Mono-VHS, CBD-Mono-Valinate-Mono-Hemisuccinate]",Maximum solubility achieved in Tocrisolve,[1]; as the substance itself,1.18 % w/v
same,Maximum solubility achieved in Tocrisolve (In terms of CBD),[1]; in terms of CBD,(0.61) % w/v
same,"Plasma Concentration of CBD-Mono-VHS, Average",[2]; 0 hr,0.0 ng/mL
same,Plasma Concentration of CBD-Mono-VHS,[2]; 0 hr,0.0 ng/mL
same,"Plasma Concentration of CBD-Mono-VHS, Average",[2]; 0.25 hr,1029.0 ng/mL
same,Plasma Concentration of CBD-Mono-VHS,[2]; 0.25 hr,1255.5 ng/mL and 1512.3 ng/mL and 370.2 ng/mL and 978.0 ng/mL
same,"Plasma Concentration of CBD-Mono-VHS, Average",[2]; 0.5 hr,1626.3 ng/mL
same,Plasma Concentration of CBD-Mono-VHS,[2]; 0.5 hr,1174.8 ng/mL and 2655.0 ng/mL and 1437.1 ng/mL and 1238.2 ng/mL
same,"Plasma Concentration of CBD-Mono-VHS, Average",[2]; 1 hr,2127.5 ng/mL
same,Plasma Concentration of CBD-Mono-VHS,[2]; 1 hr,1400.6 ng/mL and 3120.9 ng/mL and 2496.6 ng/mL and 1492.0 ng/mL
same,"Plasma Concentration of CBD-Mono-VHS, Average",[2]; 2 hr,593.5 ng/mL
same,Plasma Concentration of CBD-Mono-VHS,[2]; 2 hr,392.2 ng/mL and 1317.3 ng/mL and 399.5 ng/mL and 264.8 ng/mL
same,"Plasma Concentration of CBD-Mono-VHS, Average",[2]; 4 hr,234.8 ng/mL
same,Plasma Concentration of CBD-Mono-VHS,[2]; 4 hr,115.1 ng/mL and 423.3 ng/mL and 116.1 ng/mL and 284.8 ng/mL
same,"Plasma Concentration of CBD-Mono-VHS, Average",[2]; 6 hr,212.0 ng/mL
same,Plasma Concentration of CBD-Mono-VHS,[2]; 6 hr,71.4 ng/mL and 181.0 ng/mL and 397.8 ng/mL and 197.8 ng/mL
same,"Plasma Concentration of CBD-Mono-VHS, Average",[2]; 8 hr,152.2 ng/mL
same,Plasma Concentration of CBD-Mono-VHS,[2]; 8 hr,44.6 ng/mL and 89.8 ng/mL and 210.0 ng/mL and 264.4 ng/mL
same,"Plasma Concentration of CBD-Mono-VHS, Average",[2]; 24 hr,27.2 ng/mL
same,Plasma Concentration of CBD-Mono-VHS,[2]; 24 hr,6.5 ng/mL and 37.8 ng/mL and 47.1 ng/mL and 17.5 ng/mL
same,blood levels which remain significant at 24 hr. after dosing,"[2]; oral 4 mg/animal, 24 hr",> 10 ng/mL
same,"Plasma Concentration of CBD-Mono-VHS, Average",[3]; 0 hr,0.0
same,Plasma Concentration of CBD-Mono-VHS,[3]; 0 hr,0.0
same,"Plasma Concentration of CBD-Mono-VHS, Average",[3]; 0.25 hr,6.0
same,Plasma Concentration of CBD-Mono-VHS,[3]; 0.25 hr,7.1 (2×) and 3.9
same,"Plasma Concentration of CBD-Mono-VHS, Average",[3]; 0.5 hr,11.1
same,Plasma Concentration of CBD-Mono-VHS,[3]; 0.5 hr,9.0 and 12.8 and 11.6
same,"Plasma Concentration of CBD-Mono-VHS, Average",[3]; 1 hr,15.5
same,Plasma Concentration of CBD-Mono-VHS,[3]; 1 hr,14.1 and 13.8 and 18.5
same,"Plasma Concentration of CBD-Mono-VHS, Average",[3]; 2 hr,20.6
same,Plasma Concentration of CBD-Mono-VHS,[3]; 2 hr,12.7 and 14.5 and 34.6
same,"Plasma Concentration of CBD-Mono-VHS, Average",[3]; 4 hr,31.5
same,Plasma Concentration of CBD-Mono-VHS,[3]; 4 hr,22.0 and 27.5 and 45.1
same,"Plasma Concentration of CBD-Mono-VHS, Average",[3]; 6 hr,39.8
same,Plasma Concentration of CBD-Mono-VHS,[3]; 6 hr,24.8 and 41.6 and 53.0
same,"Plasma Concentration of CBD-Mono-VHS, Average",[3]; 24 hr,17.2
same,Plasma Concentration of CBD-Mono-VHS,[3]; 24 hr,7.3 and 44.3
same,"Organ level of CBD-Mono-VHS, KIDNEY",[4]; 2 HR,353 ng/organ
same,"Organ level of CBD-Mono-VHS, KIDNEY",[4]; 4 HR,115 ng/organ
same,"Effect on cisplatin-induced tactile allodynia (eVF paw withdrawal), in words",[5]; 1.0 to 4.0 mg/kg (CBD equivalent) IP alone,dose-dependent attenuation of tactile allodynia that equal 2.5 mg/kg morphine at 3.0 and 4.0 mg/kg
same,"Effect on cisplatin-induced tactile allodynia (eVF paw withdrawal), in words","[5]; 1.0 to 4.0 mg/kg (CBD equivalent) in combination with 0.1 mg/kg morphine, IP",shifted this dose response curve to the left where 2.0 mg/kg CBD-Mono-VHS attenuated tactile allodynia equal to that of 2.5 mg/kg morphine
same,Doses with mean withdrawal thresholds significantly higher compared to vehicle,[5]; IP alone,2.0 to 4.0 mg/kg
same,Doses with mean withdrawal thresholds significantly higher compared to vehicle,"[5]; IP, combination with 0.1 mg/kg morphine",1.0 to 4.0 mg/kg
same,"Blood brain barrier passage, in words","[6]; IP 30 and 60 μg, 70 minutes",crosses the blood brain barrier
same,"Organ concentrations after IP administration, in words","[6]; IP 30 and 60 μg, 70 minutes",high concentrations of the drug in all organs tested in a dose proportional manner
same,"CBD Plasma Concentration, AVG.",[6]; [7],0.00 ng/mL
same,"Total CBD, Brain, AVG.",[6]; [7],0.95 ng
same,"Total CBD, Kidney, AVG.",[6]; [7],11.15 ng
same,"Total CBD, Liver, AVG.",[6]; [7],295.11 ng
same,"Total CBD, Spleen, AVG.",[6]; [7],64.42 ng
